The record followed here is patent US20110009381A1, “SOLUBILIZED THIAZOLOPYRIDINES” (Sirtis Pharmaceuticals, Inc., priority 2007, published 2011).

The assay concerns the target T1, SIRT1 (Homo sapiens, UniProt Q96EB6).
T1 sequence (Q96EB6 1-747): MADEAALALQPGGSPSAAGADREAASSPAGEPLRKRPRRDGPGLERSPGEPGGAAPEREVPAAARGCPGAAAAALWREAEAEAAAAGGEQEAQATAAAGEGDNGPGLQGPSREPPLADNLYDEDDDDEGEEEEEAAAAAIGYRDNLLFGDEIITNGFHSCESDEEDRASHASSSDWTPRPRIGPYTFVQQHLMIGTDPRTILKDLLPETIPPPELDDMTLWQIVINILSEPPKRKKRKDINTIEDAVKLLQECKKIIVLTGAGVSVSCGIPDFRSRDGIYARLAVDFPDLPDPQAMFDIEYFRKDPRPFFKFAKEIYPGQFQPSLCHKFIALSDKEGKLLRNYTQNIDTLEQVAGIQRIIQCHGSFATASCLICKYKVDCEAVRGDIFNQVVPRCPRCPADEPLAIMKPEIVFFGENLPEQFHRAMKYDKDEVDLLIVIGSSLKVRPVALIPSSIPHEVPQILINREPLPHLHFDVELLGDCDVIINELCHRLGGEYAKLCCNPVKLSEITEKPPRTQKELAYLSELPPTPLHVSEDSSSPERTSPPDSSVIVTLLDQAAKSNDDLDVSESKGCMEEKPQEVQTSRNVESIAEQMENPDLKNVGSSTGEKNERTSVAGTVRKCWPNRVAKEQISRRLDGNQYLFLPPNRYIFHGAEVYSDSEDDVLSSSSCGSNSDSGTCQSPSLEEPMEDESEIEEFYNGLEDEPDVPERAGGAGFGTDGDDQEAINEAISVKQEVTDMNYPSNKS
Kind of assay: Mass spectrometry based assay to identify modulators of SIRT1 activity (deacetylation of p53-based acetylated peptide substrate). The class given is biochemical. The following applies: 10 nM SIRT1, 0.5 μM peptide substrate, 120 μM βNAD+, 25 minutes at 25° C.; for EC1.5: SIRT1 activation. From the text:
A mass spectrometry based assay was used to identify modulators of SIRT1 activity. The mass spectrometry based assay utilizes a peptide having 20 amino acid residues as follows: Ac-EE-K(biotin)-GQSTSSHSK(Ac)NleSTEG-K(5TMR)-EE-NH2 (SEQ ID NO: 1) wherein K(Ac) is an acetylated lysine residue and Nle is a norleucine. The peptide is labeled with the fluorophore 5TMR (excitation 540 nm/emission 580 nm) at the C-terminus. The sequence of the peptide substrate is based on p53 with several modifications. In addition, the methionine residue naturally present in the sequence was replaced with the norleucine because the methionine may be susceptible to oxidation during synthesis and purification.
The mass spectrometry assay is conducted as follows: 0.5 μM peptide substrate and 120 μM βNAD^+ is incubated with 10 nM SIRT1 for 25 minutes at 25° C. in a reaction buffer (50 mM Tris-acetate pH 8, 137 mM NaCl, 2.7 mM KCl, 1 mM MgCl2, 5 mM DTT, 0.05% BSA). Test compounds may be added to the reaction as described above. The SirT1 gene is cloned into a T7-promoter containing vector and transformed into BL21(DE3). After the 25 minute incubation with SIRT1, 10 μL of 10% formic acid is added to stop the reaction. Reactions are sealed and frozen for later mass spec analysis. Determination of the mass of the substrate peptide allows for precise determination of the degree of acetylation (i.e. starting material) as compared to deacetylated peptide (product).
A control for inhibition of sirtuin activity is conducted by adding 1 μL of 500 mM nicotinamide as a negative control at the start of the reaction (e.g., permits determination of maximum sirtuin inhibition). A control for activation of sirtuin activity is conducted using 10 nM of sirtuin protein, with 1 μL of DMSO in place of compound, to determine the amount of deacetylation of the substrate at a given timepoint within the linear range of the assay. This timepoint is the same as that used for test compounds and, within the linear range, the endpoint represents a change in velocity.
For the above assay, SIRT1 protein was expressed and purified as follows. The SirT1 gene was cloned into a T7-promoter containing vector and transformed into BL21(DE3). The protein was expressed by induction with 1 mM IPTG as an N-terminal His-tag fusion protein at 18° C. overnight and harvested at 30,000×g. Cells were lysed with lysozyme in lysis buffer (50 mM Tris-HCl, 2 mM Tris[2-carboxyethyl]phosphine (TCEP), 10 μM ZnCl2, 200 mM NaCl) and further treated with sonication for 10 min for complete lysis. The protein was purified over a Ni-NTA column (Amersham) and fractions containing pure protein were pooled, concentrated and run over a sizing column (Sephadex S200 26/60 global). The peak containing soluble protein was collected and run on an Ion-exchange column (MonoQ). Gradient elution (200 mM-500 mM NaCl) yielded pure protein. This protein was concentrated and dialyzed against dialysis buffer (20 mM Tris-HCl, 2 mM TCEP) overnight. The protein was aliquoted and frozen at −80° C. until further use.
Sirtuin modulating compounds that activated SIRT1 were identified using the assay described above and are shown below in Table 1. The EC1-5 values for the activating compounds are represented by A′ (EC1.5<250 nM), A (EC1.5≧250 nM and ≦1 uM), B (EC1.5>1 and ≦10 uM), or C (EC1.5>10 uM). The percent maximum fold activation is represented by A (Fold activation≧300%), B (Fold Activation≧150% and <300%), or C (Fold Activation<150%).

On to `O=C(Nc1ccccc1-c1nc2cccnc2s1)c1cc(N2CCNCC2)nc(-c2ccccc2)n1` [Compound 1], for which the “FOLD ACT. (percent maximum fold activation)” value is on record as “A (Fold activation≧300%)” and the EC1.5 entry is “A′ (EC1.5<250 nM)”.
Consider `O=C(Nc1ccccc1-c1nc2cccnc2s1)c1cc(N2CCOCC2)nc(-c2ccccc2)n1` [Compound 2], for which the “FOLD ACT. (percent maximum fold activation)” value is “B (Fold Activation≧150% and <300%)”; the EC1.5 result was “A′ (EC1.5<250 nM)”.
Take `COCCN1CCN(c2cc(C(=O)Nc3ccccc3-c3nc4cccnc4s3)nc(-c3ccccc3)n2)CC1` [Compound 3]: the “FOLD ACT. (percent maximum fold activation)” value is “A (Fold activation≧300%)” and the EC1.5 result is reported as “A′ (EC1.5<250 nM)”.
On to `COCCN1CCN(c2cc(C(=O)Nc3ccccc3-c3nc4cccnc4s3)nc(Cl)n2)CC1` [Compound 4], for which the “FOLD ACT. (percent maximum fold activation)” value was “A (Fold activation≧300%)”; the EC1.5 entry is “A (EC1.5≧250 nM and ≦1 uM)”.
`COCCN1CCN(c2cc(C(=O)Nc3ccccc3-c3nc4cccnc4s3)nc(OC)n2)CC1` [Compound 5]: the “FOLD ACT. (percent maximum fold activation)” value was “A (Fold activation≧300%)”; the EC1.5 entry was “A (EC1.5≧250 nM and ≦1 uM)”.
As to `O=C(Nc1ccccc1-c1nc2cccnc2s1)c1cc(OC2CNC2)cc(-c2ccccc2)n1` [Compound 6], the “FOLD ACT. (percent maximum fold activation)” value is reported as “A (Fold activation≧300%)”; the EC1.5 result was “A (EC1.5≧250 nM and ≦1 uM)”.
Take `O=C(Nc1ccccc1-c1nc2cccnc2s1)c1cc(OCCN2CCS(=O)(=O)CC2)cc(-c2ccccc2)n1` [Compound 7]: the “FOLD ACT. (percent maximum fold activation)” value is “A (Fold activation≧300%)” and the EC1.5 result is reported as “A′ (EC1.5<250 nM)”.
For `O=C(Nc1ccccc1-c1nc2cccnc2s1)c1cc(Cl)nc(-c2ccccc2)n1` [Compound 8], in that order: “C (Fold Activation<150%)” and “C (EC1.5>10 uM)”.
For `CN(C)CCNc1cc(C(=O)Nc2ccccc2-c2nc3cccnc3s2)nc(-c2ccccc2)n1` [Compound 9], the “FOLD ACT. (percent maximum fold activation)” value was “A (Fold activation≧300%)” and the EC1.5 result was “A′ (EC1.5<250 nM)”.
With `O=C(Nc1ccccc1-c1nc2cccnc2s1)c1cc(CN2CCOCC2)nc(-c2ccccc2)n1` [Compound 10], the “FOLD ACT. (percent maximum fold activation)” value was “A (Fold activation≧300%)”; the EC1.5 entry is “A (EC1.5≧250 nM and ≦1 uM)”.
Regarding `O=C(Nc1ccccc1-c1nc2cccnc2s1)c1cc(CN2CCCC2)nc(-c2ccccc2)n1` [Compound 11], the “FOLD ACT. (percent maximum fold activation)” value is listed as “A (Fold activation≧300%)”; the EC1.5 result is “B (EC1.5>1 and ≦10 uM)”.
In the case of `COCCN1CCN(CCOc2cc(C(=O)Nc3ccccc3-c3nc4cccnc4s3)nc(-c3ccccc3)c2)CC1` [Compound 12], the “FOLD ACT. (percent maximum fold activation)” value was “A (Fold activation≧300%)” and the EC1.5 result is reported as “A′ (EC1.5<250 nM)”.
As for `O=C(Nc1ccccc1-c1nc2cccnc2s1)c1cc(OCCN2CCOCC2)cc(-c2ccccc2)n1` [Compound 13], the “FOLD ACT. (percent maximum fold activation)” value is “A (Fold activation≧300%)”; the EC1.5 entry is “A (EC1.5≧250 nM and ≦1 uM)”.
As to `O=C(Nc1ccccc1-c1nc2cccnc2s1)c1cc(OCCN2CCNCC2)cc(-c2ccccc2)n1` [Compound 14], the “FOLD ACT. (percent maximum fold activation)” value is on record as “A (Fold activation≧300%)” and the EC1.5 entry is listed as “A′ (EC1.5<250 nM)”.
In the case of `COCCNc1cc(C(=O)Nc2ccccc2-c2nc3cccnc3s2)nc(-c2ccccc2)n1` [Compound 15], the “FOLD ACT. (percent maximum fold activation)” value is recorded as “A (Fold activation≧300%)”; the EC1.5 entry was “A (EC1.5≧250 nM and ≦1 uM)”.
Take `O=C(Nc1ccccc1-c1nc2cccnc2s1)c1cc(N2CCS(=O)(=O)CC2)nc(-c2ccccc2)n1` [Compound 16]: the “FOLD ACT. (percent maximum fold activation)” value was “B (Fold Activation≧150% and <300%)”; the EC1.5 entry is “A (EC1.5≧250 nM and ≦1 uM)”.
In the case of `COC(=O)CNc1cc(C(=O)Nc2ccccc2-c2nc3cccnc3s2)nc(-c2ccccc2)n1` [Compound 17], the “FOLD ACT. (percent maximum fold activation)” value is listed as “A (Fold activation≧300%)”; the EC1.5 result is “A (EC1.5≧250 nM and ≦1 uM)”.
For the compound `CCOc1cc(C(=O)Nc2ccccc2-c2nc3cccnc3s2)nc(-c2ccccc2)n1` [Compound 18], the “FOLD ACT. (percent maximum fold activation)” value was “C (Fold Activation<150%)” and the EC1.5 entry is recorded as “C (EC1.5>10 uM)”.
For the compound `CC(C)CNc1cc(C(=O)Nc2ccccc2-c2nc3cccnc3s2)nc(-c2ccccc2)n1` [Compound 19], the “FOLD ACT. (percent maximum fold activation)” value is given as “C (Fold Activation<150%)” and the EC1.5 entry is listed as “C (EC1.5>10 uM)”.
For `O=C(Nc1ccccc1-c1nc2cccnc2s1)c1cc(NC2CCCC2)nc(-c2ccccc2)n1` [Compound 20], in that order: “C (Fold Activation<150%)” and “C (EC1.5>10 uM)”.
For `O=C(Nc1ccccc1-c1nc2cccnc2s1)c1cc(N2CCCCC2)nc(-c2ccccc2)n1` [Compound 21], in that order: “C (Fold Activation<150%)” and “C (EC1.5>10 uM)”.
In the case of `O=C(Nc1ccccc1-c1nc2ccncc2s1)c1cc(N2CCOCC2)nc(-c2ccccc2)n1` [Compound 22], the “FOLD ACT. (percent maximum fold activation)” value is listed as “A (Fold activation≧300%)”; the EC1.5 entry is “A (EC1.5≧250 nM and ≦1 uM)”.
For the compound `O=C(Nc1ccccc1-c1nc2ccncc2s1)c1cc(N2CCNCC2)nc(-c2ccccc2)n1` [Compound 23], the “FOLD ACT. (percent maximum fold activation)” value is given as “A (Fold activation≧300%)” and the EC1.5 result is “A′ (EC1.5<250 nM)”.
For `CC(C)N1CCN(c2cc(C(=O)Nc3ccccc3-c3nc4ccncc4s3)nc(-c3ccccc3)n2)CC1` [Compound 24], in that order: “A (Fold activation≧300%)” and “A′ (EC1.5<250 nM)”.
Turning to `COCCN1CCN(c2cc(C(=O)Nc3ccccc3-c3nc4ccncc4s3)nc(-c3ccccc3)n2)CC1` [Compound 25], the “FOLD ACT. (percent maximum fold activation)” value is recorded as “A (Fold activation≧300%)” and the EC1.5 entry was “A′ (EC1.5<250 nM)”.
As to `CN(C)CCNc1cc(C(=O)Nc2ccccc2-c2nc3cccnc3s2)ncn1` [Compound 26], the “FOLD ACT. (percent maximum fold activation)” value is given as “A (Fold activation≧300%)”; the EC1.5 result was “B (EC1.5>1 and ≦10 uM)”.
On to `COCCNc1cc(C(=O)Nc2ccccc2-c2nc3ccncc3s2)nc(-c2ccccc2)n1` [Compound 27], for which the “FOLD ACT. (percent maximum fold activation)” value is reported as “A (Fold activation≧300%)”; the EC1.5 entry is “A (EC1.5≧250 nM and ≦1 uM)”.
